Measured values from paper PMC7460240 (Biomedicines, 2020).
Values after ≈ are worked out from the molar mass of the structure shown. Where a name gives a salt, the structure may show the parent alone.

Columns and labels:
[1] = biological target: T1, hPtch1 (Homo sapiens, UniProt Q13635); experiment: Doxorubicin efflux measurement in hPtch1-expressing yeast (fluorescence microscopy); type: cell-based; conditions: 10 µM P136 in efflux buffer, 10 min, 2-deoxy-D-glucose
T1 construct: expressed in transfected cells; host or cells: Saccharomyces cerevisiae strain K699
T1 sequence (Q13635 1-1447): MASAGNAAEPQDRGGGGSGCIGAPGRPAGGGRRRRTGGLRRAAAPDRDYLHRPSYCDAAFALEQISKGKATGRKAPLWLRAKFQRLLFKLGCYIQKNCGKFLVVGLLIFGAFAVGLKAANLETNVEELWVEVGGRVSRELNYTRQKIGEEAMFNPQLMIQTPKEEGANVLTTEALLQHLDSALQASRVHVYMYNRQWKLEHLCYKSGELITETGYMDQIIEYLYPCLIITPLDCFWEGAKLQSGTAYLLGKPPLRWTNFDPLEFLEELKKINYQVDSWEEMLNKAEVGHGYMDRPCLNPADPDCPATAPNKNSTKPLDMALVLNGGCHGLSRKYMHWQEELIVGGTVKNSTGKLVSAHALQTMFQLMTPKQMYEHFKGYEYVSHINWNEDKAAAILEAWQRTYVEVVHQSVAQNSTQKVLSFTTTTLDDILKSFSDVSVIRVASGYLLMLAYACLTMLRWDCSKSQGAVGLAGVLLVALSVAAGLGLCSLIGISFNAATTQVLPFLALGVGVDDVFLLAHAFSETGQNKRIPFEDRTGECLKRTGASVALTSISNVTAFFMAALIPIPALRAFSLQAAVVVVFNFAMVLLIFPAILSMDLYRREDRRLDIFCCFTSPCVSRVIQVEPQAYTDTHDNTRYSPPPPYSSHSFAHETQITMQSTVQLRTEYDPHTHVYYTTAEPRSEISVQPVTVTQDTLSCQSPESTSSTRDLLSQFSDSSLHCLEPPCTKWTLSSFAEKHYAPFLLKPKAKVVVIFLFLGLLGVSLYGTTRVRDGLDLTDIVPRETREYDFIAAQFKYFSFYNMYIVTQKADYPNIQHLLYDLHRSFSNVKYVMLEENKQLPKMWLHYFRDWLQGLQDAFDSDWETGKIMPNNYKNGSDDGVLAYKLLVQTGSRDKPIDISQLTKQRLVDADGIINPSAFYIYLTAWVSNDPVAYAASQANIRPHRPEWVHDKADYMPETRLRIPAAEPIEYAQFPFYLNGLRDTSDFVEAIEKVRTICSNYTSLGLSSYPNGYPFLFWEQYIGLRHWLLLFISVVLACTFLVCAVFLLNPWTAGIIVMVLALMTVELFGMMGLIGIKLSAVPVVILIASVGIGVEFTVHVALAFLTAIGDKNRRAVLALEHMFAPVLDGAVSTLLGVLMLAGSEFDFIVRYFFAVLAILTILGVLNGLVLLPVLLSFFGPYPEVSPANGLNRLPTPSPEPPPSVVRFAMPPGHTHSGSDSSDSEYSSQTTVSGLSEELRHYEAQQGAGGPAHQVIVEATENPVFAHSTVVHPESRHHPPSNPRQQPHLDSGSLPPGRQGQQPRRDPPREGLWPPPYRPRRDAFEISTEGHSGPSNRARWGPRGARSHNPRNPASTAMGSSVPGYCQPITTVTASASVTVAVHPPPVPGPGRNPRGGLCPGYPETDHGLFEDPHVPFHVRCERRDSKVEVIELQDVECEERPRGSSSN
Protocol: Efflux measurements were carried out as described in [19]. On yeast: hPtch1-expressing yeasts or control yeasts were grown to an OD600 of 5, centrifuged, washed with cold water and resuspended in HEPES–NaOH buffer (pH 7.0) containing 5 mM 2-deoxy-D-glucose and 10 µM dxr for 2 h at 4 °C. […] Yeasts were centrifuged, resuspended in 4% PFA and deposited on a coverslip with SlowFade Gold antifade reagent containing DAPI (Invitrogen).
(§1) Images were acquired with a Zeiss Axioplan 2 fluorescence microscope coupled to a digital charge-coupled device camera using a 63X objective for yeast or a 40X /1.3 Plan NeoFluar objective for cells, and filters for Alexa 594 or FITC for dxr or Bo-chol analysis, respectively. Dxr or Bo-chol fluorescence was quantified using the ImageJ software. About 100 yeast/cells (from three wells) were scored per condition.
Figure 1 P136 inhibits doxorubicin efflux activity of hPtch1 when expressed in yeast. […] The growth of yeast was measured by absorbance at 600 nm. (B) P136 inhibits the efflux of doxorubicin of hPtch1-expressing yeast. hPtch1-expressing yeast and control yeast were incubated with dxr for 2 h and fixed for dxr loading control or resuspended in buffer containing DMSO or 10 μM P136 for 10 min, fixed and deposited on a coverslip for analysis by fluorescence microscopy. […]

[2] = Cytotoxicity assay (neutral red, 48 h) on H295R cells; type: cell-based, human; conditions: human, H295R cells at 80% confluence
Protocol: (§2) Cytotoxicity assays on H295R cells were carried out as previously described. Briefly, H295R cells were grown in 96-well plates to achieve 70% to 80% confluence. […] An amount of 100 µL of medium containing increasing concentrations of dxr was then added. […] After 48 h, cells were incubated 3 h at 37 °C with neutral red (NR) solution following the manufacturer’s protocol. Absorbance was measured in a microplate reader (Multiskan Go Microplate Spectrophotometer from Thermo Fisher Scientific, Illkirch, France).

[3] = system: H295R cells; experiment: as above; type: cell-based, human
Protocol: as §2

[4] = system: H295R cells; experiment: Synergy analysis of drug combination (Chou-Talalay) on H295R cells; type: cell-based, human; conditions: 48 h, dxr with 1 µM astemizole
Protocol: Synergy analysis was performed using the Chou-Talalay method for drug combination as described in [21, 22]. […] Normalized isobolograms and Chou-Talalay’s plots (Fa-CI plot were Fa is the fraction affected and CI is the combination index) were created using the Compusyn Software (Version 1.0 downloaded from www.combosyn.com). These allow quantitative determination of drug interactions, where CI < 1 (below the diagonal), =1 (diagonal) and >1 (above the diagonal) indicate synergism, additive effect and antagonism, respectively. Dose-reduction index (DRI) is reported.

[5] = system: caspase 3/7 activity; experiment: Apoptosis measurement (Caspase-Glo 3/7) in H295R cells; type: cell-based, human; conditions: 48 h, 0.5 µM astemizole, no dxr
Protocol: Quantification of caspase 3/7 activity was performed using the luminescent assay Caspase-Glo 3/7 (Promega, Charbonnières-les-Bains, France) and a luminometer (Glomax 96 Microplate Luminometer from Promega, Charbonnières-les-Bains, France) following the manufacturer’s protocol.

[6] = system: H295R cells; experiment: Clone formation of H295R cells (14 days, crystal violet); type: cell-based, human; conditions: combination of dxr and astemizole
Protocol: After 14 days, clones were stained with crystal violet and pictures were taken. Cells were then solubilized and absorbance was measured in a microplate reader at 550 nm (Multiskan Go Microplate Spectrophotometer, Thermo Scientific, Illkirch, France).

[7] = system: H295R cells; experiment: Spheroid formation in 3D culture of H295R cells; type: cell-based, human; conditions: 14 days
Protocol: H295R cells were cultured in DMEM/F-12, 2% NuSerum, 1% ITS Plus and penicillin/streptomycin supplemented with 20 µg/µL EGF and 20 µg/µL FGF. […] After 14 days, images of each well were taken using a cell imaging multi-mode reader (Cytation 5 from Bio Tek, Colmar, France). Then, 100 µL of the medium was removed from each well and 100 µL of Cell Titer Glow 3D reagent (Promega) was added. Spheroids were disrupted according to the protocol from the Cell Titer Glow 3D Viability Assay (Promega) and viability was measured in a microplate reader at 550 nm (Multiskan Go Microplate Spectrophotometer, Thermo Scientific).

[8] = Distribution coefficient octanol/PBS pH 7.4; type: physicochemical; conditions: read-out: LogD7.4
[9] = Solubility in aqueous buffer (PBS, pH 7.4); type: physicochemical
[10] = Metabolic stability in rat liver microsomes; type: in vitro ADME; conditions: NADPH, read-out: RLM T1/2
Protocol: (§3) Profiling and PK studies were performed by GalenAuxi Co (Oxford, UK) as previously described. […] Plasma samples (50 μL) were collected via the facial vein at 3, 10, 30, 60, 120, 240, 360 and 1440 min post-dose for the IV group, and at 10, 30, 60, 120, 240, 360, 480 and 1440 min post-dose for the PO group in K2EDTA-coated tubes, mixed gently and centrifuged at 2500 g for 15 min at 4 °C within 1 h after collection. For control animals, blood was collected by cardiac puncture. Plasma samples were prepared in acetonitrile for LC-MS/MS analysis. Peak areas were recorded and the concentrations of the test compound in the unknown plasma samples were determined using the respective calibration curve.
(§4) We determined its lipophilicity described by the distribution constant LogD, its solubility, which is an important parameter since water is the solvent of choice for the liquid pharmaceutical formulation, its metabolic stability measured in the presence of rat and human microsomes and NADPH, and its ability to bind to proteins.

[11] = Metabolic stability in human liver microsomes; type: in vitro ADME; conditions: NADPH, read-out: HLM T1/2
Protocol: as §3, §4

[12] = Human plasma protein binding; type: in vitro ADME; conditions: read-out: Ppb
[13] = system: MeWo cells; experiment: Doxorubicin efflux in MeWo melanoma cells; type: cell-based, human; conditions: 30 µM astemizole, 30 min
[14] = system: HaCaT keratinocytes; experiment: Cell viability of HaCaT keratinocytes (48 h); type: cell-based, human; conditions: 10 µM astemizole
[15] = system: H295R cells
[16] = biological target: T2, Ptch1 (Homo sapiens, UniProt Q13635); experiment: Doxorubicin efflux measurement in H295R cells; type: cell-based; set-up: endogenous in cells; host or cells: H295R; conditions: H295R cells loaded with 10 µM dxr 2 h, then 30 min efflux buffer with 10 µM astemizole
T2 sequence (Q13635 1-1447): T1 sequence (Q13635 1-1447)
Protocol: (§5) After 2 h, some coverslips were immediately fixed with PFA and mounted in SlowFade Gold antifade reagent containing DAPI (Invitrogen) for loading control.
as §1
(§6) After 2 h, 3 coverslips were fixed for dxr or Bo-chol loading control. […] Images were acquired using fluorescence microscopy and a 40x objective. Fluorescence was quantified using the Image J software for 100 cells per condition.

[17] = biological target: T2, Ptch1; experiment: BODIPY-cholesterol efflux measurement in H295R cells; type: cell-based; set-up: endogenous in cells; host or cells: H295R; conditions: H295R cells loaded with BODIPY-cholesterol 2 h, then 30 min efflux buffer with 10 µM astemizole
Protocol: as §5, §1, §6

[18] = Cell viability of MeWo melanoma cells (48 h); conditions: human, MeWo melanoma cells
Protocol: (§7) Cell viability was measured after 48 hours
(§8) doxorubicin (dxr) 2 μM. The graphs reported are representative of more than 3 independent
(§9) Cell viability was measured after 48 hours treatment
(§10) the mean ± SEM values of 3 independent experiments. Significance, calculated using ANOVA
(§11) multiple comparison test and Bonferroni correction, was attained at p < 0.05 (*) (***: p < 0.0005).

[19] = system: MeWo cells; experiment: Cell viability of MeWo melanoma cells (48 h); conditions: MeWo cells, 48 h, serial dilutions of astemizole with 2 µM dxr
Protocol: as §7, §8, §9, §10, §11

[20] = biological target: T2, Ptch1; experiment: Screening on the resistance to doxorubicin of yeast expressing human Ptch1 (growth, OD600); type: cell-based; set-up: expressed in transfected cells; host or cells: Saccharomyces cerevisiae strain K699; conditions: 10 µM compound; for effect on resistance/growth of hPtch1-expressing yeast in the presence of dxr: 10 µM dxr, 18 °C, about 72 h
Protocol: The screening of molecules on yeast was carried out as described in [18]. Briefly, S. cerevisiae expressing human Ptch1 were grown at 30 °C up to an OD600 between 1 and 2in minimal medium containing 2% of glucose and amino acid cocktail without leucine, and then diluted in rich medium containing 2% glucose in 96-well plates. An amount of 10 µM of molecules to be tested was added in 8 wells (10 molecules can be tested on one plate) and 10 µM of dxr was added to half of the wells. Plates were incubated at 18 °C on a shaker at 1250 rpm (microtiter plate shaker SSL5 Stuart) and absorbance at 600 nm was recorded for about 72 h.
Figure 1 P136 inhibits doxorubicin efflux activity of hPtch1 when expressed in yeast. (A) P136 inhibits the resistance of hPtch1-expressing yeast to doxorubicin. hPtch1-expressing yeast were grown in the presence of 10 µM of P136, P298 or P375, and in the presence or absence of 10 µM doxorubicin (dxr). DMSO was used as control. The growth of yeast was measured by absorbance at 600 nm. (B) P136 inhibits the efflux of doxorubicin of hPtch1-expressing yeast. hPtch1-expressing yeast and control yeast were incubated with dxr for 2 h and fixed for dxr loading control or resuspended in buffer containing DMSO or 10 μM P136 for 10 min, fixed and deposited on a coverslip for analysis by fluorescence microscopy. The dxr fluorescence of 100 yeast for each condition from 3 independent experiments was quantified using the ImageJ software. […] Significance is attained at p < 0.05 (*) (***: p < 0.0005, ****: p < 0.00005, ns: no significant difference).

[21] = system: H295R cells; experiment: cells; conditions: Homo sapiens, NCI-H295R, 168 h, read-out: Dxr-IC50 (proliferation), astemizole 0 µM

In the case of COc1ccc(CCN2CCC(Nc3nc4ccccc4n3Cc3ccc(F)cc3)CC2)cc1 [astemizole, Astemizole], the “effect on amount of dxr in hPtch1-expressing yeast (dxr efflux)” value [1] is reported as “increases the amount of dxr in hPtch1-expressing yeast significantly more than in control yeast”, the IC50 at 48 h [2] is reported as about 7 µM and the “increase of the efficacy of dxr combined with etoposide and mitotane (EDM) by astemizole” value ([3]; H295R cells, 1 µM astemizole, dxr + 10 µM etoposide + 10 µM mitotane) is reported as “about eight times”. For the same molecule, the “increase of the cytotoxicity of dxr by astemizole” value ([3]; H295R cells, 1 µM astemizole, dxr alone) was “about 10 times”, the “toxicity of astemizole by itself to ACC cells” value ([3]; H295R cells, 1 µM astemizole, no dxr) was “not toxic to ACC cells by itself” and the “cooperativity indices (CI), dxr and astemizole” value [4] was “below 1”. The “effect of astemizole by itself on caspase 3/7 activity” value [5] was “does not affect caspase 3/7 activity by itself”, the “increase of the anti-clonogenic activity of dxr” value [6] was “increased four times” and the “spheroid size with combination dxr + astemizole” value [7] was “significantly smaller”. For the same molecule, the logD [8] was 3.5, the solubility [9] was 22.1 µM (≈ 10.1 µg/mL) and the half-life [10] was 31 min. The half-life [11] was over 60 min, the fraction unbound [12] was 0.01 and the “effect on dxr efflux from melanoma cells” value [13] was “inhibits dxr efflux from melanoma cells”. The “effect on keratinocyte viability” value [14] was “very slight effect on keratinocyte viability”, the “effect of astemizole by itself on cell viability” value ([15]; 7 days, 0.5 µM astemizole, no dxr) was “does not affect cell viability by itself” and the “effect of astemizole alone on proliferation” value ([15]; serial dilution of astemizole for 7 days) was “inhibited their proliferation”. The “dxr kept inside the cells” value [16] was “about 73%”, the “Bo-chol kept inside the cells” value [17] was “about 95%” and the IC50 at 48 h [18] was about 7 µM. The “effect on dxr cytotoxicity in melanoma cells” value [19] was “increases dxr cytotoxicity”, the “effect on resistance/growth of hPtch1-expressing yeast in the presence of dxr” value [20] was “able to inhibit the growth of hPtch1-expressing yeast in the presence of dxr” and the “effect on growth of hPtch1-expressing yeast in the absence of dxr” value ([20]; no dxr) was “without effects on the growth of hPtch1-expressing yeast in the absence of dxr”.
COc1cccc2c1C(=O)c1c(O)c3c(c(O)c1C2=O)C[C@@](O)(C(=O)CO)C[C@@H]3O[C@H]1C[C@H](N)[C@H](O)[C@H](C)O1 [Dxr, Doxorubicin hydrochloride] gave an IC50 ([3]; Homo sapiens, NCI-H295R, read-out: Dxr-IC50 Without Astemizole, H295R cells, neutral red, mean ± SEM of 3 experiments) of 17.3 ± 3.6 µM and an IC50 [21] of 0.1 ± 0.02 µM.
In the case of CSc1ccc2c(c1)C(N1CCN(C)CC1)Cc1ccccc1S2 (stereo not drawn) [P375, methiothepin maleate], the “effect on resistance/growth of hPtch1-expressing yeast in the presence of dxr” value [20] is reported as “significantly inhibited the resistance of hPtch1-expressing yeast to dxr”.
